{"source": "patent US11111214B2", "about": "(priority 2013, dated 2021)", "key": {"[1]": {"molecular_target": "T1, KOR (kappa opioid receptor) (Homo sapiens, UniProt P41145)", "T1 construct": "expressed in transfected cells; host or cells: CHO-K1 cells stably expressing KOR", "T1 sequence (P41145 whole entry)": "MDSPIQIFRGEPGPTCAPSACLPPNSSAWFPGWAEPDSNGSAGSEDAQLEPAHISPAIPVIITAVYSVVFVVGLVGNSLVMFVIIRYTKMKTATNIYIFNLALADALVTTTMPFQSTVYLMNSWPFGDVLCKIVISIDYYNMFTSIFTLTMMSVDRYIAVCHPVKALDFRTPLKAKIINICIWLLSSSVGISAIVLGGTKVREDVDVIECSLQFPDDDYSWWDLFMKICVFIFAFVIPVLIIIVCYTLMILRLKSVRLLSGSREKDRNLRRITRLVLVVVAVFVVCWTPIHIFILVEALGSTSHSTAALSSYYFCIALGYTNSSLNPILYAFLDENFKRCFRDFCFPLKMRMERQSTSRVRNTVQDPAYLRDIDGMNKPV", "assay": "cell-based"}, "[2]": {"molecular_target": "T2, recombinant human mu (MOR) opioid receptor (Homo sapiens, UniProt P35372)", "T2 construct": "expressed in transfected cells; host or cells: CHO-K1 cell membranes", "T2 sequence (P35372 whole entry)": "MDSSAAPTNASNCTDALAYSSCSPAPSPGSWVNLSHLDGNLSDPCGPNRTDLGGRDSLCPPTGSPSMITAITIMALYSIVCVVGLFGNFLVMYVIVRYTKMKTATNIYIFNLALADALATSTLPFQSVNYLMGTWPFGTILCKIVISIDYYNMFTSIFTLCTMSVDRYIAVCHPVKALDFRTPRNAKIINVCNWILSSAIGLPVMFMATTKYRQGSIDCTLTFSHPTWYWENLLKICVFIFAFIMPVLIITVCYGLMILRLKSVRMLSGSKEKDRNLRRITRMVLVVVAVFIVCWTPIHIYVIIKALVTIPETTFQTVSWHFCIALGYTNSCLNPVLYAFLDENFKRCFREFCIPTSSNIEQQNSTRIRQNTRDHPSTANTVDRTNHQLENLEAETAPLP", "assay": "biochemical", "type": "binding", "conditions": "for inhibition at 10 µM: read-out: Mu receptor % inhibition at single concentration, % inhibition @ 10 μM"}, "[3]": {"molecular_target": "T3, recombinant human kappa (KOR) opioid receptor (Homo sapiens, UniProt P41145)", "T3 construct": "expressed in transfected cells; host or cells: CHO-K1 cell membranes", "T3 sequence (P41145 whole entry)": "as the sequence (P41145 whole entry) above", "assay": "biochemical", "type": "binding"}, "in vitro [4]": {"assay": "in vitro", "conditions": "rat, hepatocytes"}, "in vitro [5]": {"assay": "in vitro", "conditions": "human, hepatocytes"}, "[6]": {"assay": "not given", "remark": "listed apart in the source"}}, "data": [{"compound": "CCN(CCOC)C[C@H](c1ccccc1)N(C)C(=O)Cc1ccc(Cl)c(Cl)c1.Cl", "note": "[compound 10, 2-(3,4-Dichlorophenyl)-N-{(1S)-2-[ethyl(2-methoxyethyl)amino]-1-phenylethyl}-N-methylacetamide]", "values": [{"measurement": "In vitro Hepatocyte Clearance, Rat % hep Blood flow", "result": 83, "unit": "%"}, {"measurement": "EC50", "setting": "[1]", "result": 3.1, "unit": "nM"}, {"measurement": "inhibition at 10 µM", "setting": "[2]", "result": 82.8, "unit": "%"}, {"measurement": "IC50", "setting": "[3]", "result": 82.7, "unit": "nM"}, {"measurement": "Ki", "setting": "[3]", "result": 19.1, "unit": "nM"}, {"measurement": "CLhep predicted", "setting": "in vitro [4]", "result": 49.7, "unit": "mL/min/kg"}, {"measurement": "CLhep predicted", "setting": "in vitro [5]", "result": 20.6, "unit": "mL/min/kg"}, {"measurement": "In vitro Hepatocyte Clearance, Human % hep Blood flow", "setting": "[6]", "result": 89, "unit": "%"}]}, {"compound": "COCCOCCOCCOCCOCCNc1ccc([C@@H](CN2CCCC2)N(C)C(=O)Cc2ccc(Cl)c(Cl)c2)cc1", "note": "[compound 35, (S)—N-(1-(4-(2,5,8,11,14-pentaoxahexadecan-16-ylamino)phenyl)-2-(pyrrolidin-1-yl)ethyl)-2-(3,4-dichlorophenyl)-N-methylacetamide]", "values": [{"measurement": "In vitro Hepatocyte Clearance, Rat % hep Blood flow", "result": 44, "unit": "%"}, {"measurement": "EC50", "setting": "[1]", "result": 2.59, "unit": "nM"}, {"measurement": "inhibition at 10 µM", "setting": "[2]", "result": 30.6, "unit": "%"}, {"measurement": "IC50", "setting": "[3]", "result": 24.7, "unit": "nM"}, {"measurement": "Ki", "setting": "[3]", "result": 5.7, "unit": "nM"}, {"measurement": "CLhep predicted", "setting": "in vitro [4]", "result": 26.5, "unit": "mL/min/kg"}, {"measurement": "CLhep predicted", "setting": "in vitro [5]", "result": 15, "unit": "mL/min/kg"}, {"measurement": "In vitro Hepatocyte Clearance, Human % hep Blood flow", "setting": "[6]", "result": 65, "unit": "%"}]}, {"compound": "CN(C(=O)Cc1ccc(Cl)c(Cl)c1)[C@H](CN1CCCC1)c1ccc(OCCO)cc1.Cl", "note": "[compound 36, (S)-2-(3,4-dichlorophenyl)-N-(1-(4-(2-hydroxyethoxy)phenyl)-2-(pyrrolidin-1-yl)ethyl)-N-methylacetamide]", "values": [{"measurement": "In vitro Hepatocyte Clearance, Rat % hep Blood flow", "result": 24, "unit": "%"}, {"measurement": "EC50", "setting": "[1]", "result": 0.029, "unit": "nM"}, {"measurement": "inhibition at 10 µM", "setting": "[2]", "result": 64.9, "unit": "%"}, {"measurement": "IC50", "setting": "[3]", "result": 0.43, "unit": "nM"}, {"measurement": "Ki", "setting": "[3]", "result": 0.1, "unit": "nM"}, {"measurement": "CLhep predicted", "setting": "in vitro [4]", "result": 14.3, "unit": "mL/min/kg"}, {"measurement": "CLhep predicted", "setting": "in vitro [5]", "result": 16.5, "unit": "mL/min/kg"}, {"measurement": "In vitro Hepatocyte Clearance, Human % hep Blood flow", "setting": "[6]", "result": 71, "unit": "%"}]}, {"compound": "COCCOCCOCCOCCOCCOc1ccc([C@@H](CN2CCCC2)N(C)C(=O)Cc2ccc(Cl)c(Cl)c2)cc1.Cl", "note": "[compound 34, (S)—N-(1-(4-(2,5,8,11,14-pentaoxahexadecan-16-yloxy)phenyl)-2-(pyrrolidin-1-yl)ethyl)-2-(3,4-dichlorophenyl)-N-methylacetamide]", "values": [{"measurement": "In vitro Hepatocyte Clearance, Rat % hep Blood flow", "result": 26, "unit": "%"}, {"measurement": "EC50", "setting": "[1]", "result": 13, "unit": "nM"}, {"measurement": "inhibition at 10 µM", "setting": "[2]", "result": 17.6, "unit": "%"}, {"measurement": "IC50", "setting": "[3]", "result": 107, "unit": "nM"}, {"measurement": "Ki", "setting": "[3]", "result": 24.6, "unit": "nM"}, {"measurement": "CLhep predicted", "setting": "in vitro [4]", "result": 15.4, "unit": "mL/min/kg"}, {"measurement": "CLhep predicted", "setting": "in vitro [5]", "result": 16.4, "unit": "mL/min/kg"}, {"measurement": "In vitro Hepatocyte Clearance, Human % hep Blood flow", "setting": "[6]", "result": 71, "unit": "%"}]}, {"compound": "COCCOCCOCCNC(=O)O[C@H]1CCN(C[C@H](c2ccccc2)N(C)C(=O)Cc2ccc(Cl)c(Cl)c2)C1.Cl", "note": "[compound 5, (3S)-1-[(2S)-2-{[(3,4-Dichlorophenyl)acetyl](methyl)amino}-2-phenylethyl]pyrrolidin-3-yl {2-[2-(2-methoxyethoxy)ethoxy]ethyl}carbamate]", "values": [{"measurement": "In vitro Hepatocyte Clearance, Rat % hep Blood flow", "result": 82, "unit": "%"}, {"measurement": "EC50", "setting": "[1]", "result": 75.7, "unit": "nM"}, {"measurement": "inhibition at 10 µM", "setting": "[2]", "result": 35.6, "unit": "%"}, {"measurement": "IC50", "setting": "[3]", "result": 1190, "unit": "nM"}, {"measurement": "Ki", "setting": "[3]", "result": 275, "unit": "nM"}, {"measurement": "CLhep predicted", "setting": "in vitro [4]", "result": 49.1, "unit": "mL/min/kg"}, {"measurement": "CLhep predicted", "setting": "in vitro [5]", "result": 20.4, "unit": "mL/min/kg"}, {"measurement": "In vitro Hepatocyte Clearance, Human % hep Blood flow", "setting": "[6]", "result": 88, "unit": "%"}]}, {"compound": "COCCOCCOCCOCCOCCNC(=O)O[C@H]1CCN(C[C@H](c2ccccc2)N(C)C(=O)Cc2ccc(Cl)c(Cl)c2)C1.Cl", "note": "[compound 6, (3S)-1-[(2S)-2-{[(3,4-Dichlorophenyl)acetyl](methyl)amino}-2-phenylethyl]pyrrolidin-3-yl 2,5,8,11,14-pentaoxahexadecan-16-ylcarbamate]", "values": [{"measurement": "In vitro Hepatocyte Clearance, Rat % hep Blood flow", "result": 81, "unit": "%"}, {"measurement": "EC50", "setting": "[1]", "result": 56, "unit": "nM"}, {"measurement": "IC50", "setting": "[2]", "result": 31200, "unit": "nM"}, {"measurement": "inhibition at 10 µM", "setting": "[2]", "result": 20.6, "unit": "%"}, {"measurement": "IC50", "setting": "[3]", "result": 1100, "unit": "nM"}, {"measurement": "Ki", "setting": "[3]", "result": 255, "unit": "nM"}, {"measurement": "CLhep predicted", "setting": "in vitro [4]", "result": 48.8, "unit": "mL/min/kg"}, {"measurement": "CLhep predicted", "setting": "in vitro [5]", "result": 20.1, "unit": "mL/min/kg"}, {"measurement": "In vitro Hepatocyte Clearance, Human % hep Blood flow", "setting": "[6]", "result": 86, "unit": "%"}]}, {"compound": "CN(C(=O)Cc1ccc(Cl)c(Cl)c1)[C@H](CN1CCCC1)c1cccc(NS(=O)(=O)CCOCC(F)(F)F)c1.Cl", "note": "[compound 19, 2-(3,4-dichlorophenyl)-N-methyl-N-{(1S)-2-(pyrrolidin-1-yl)-1-[3-({[2-(2,2,2-trifluoroethoxy)ethyl]sulfonyl}amino)phenyl]ethyl}acetamide]", "values": [{"measurement": "In vitro Hepatocyte Clearance, Rat % hep Blood flow", "result": 45, "unit": "%"}, {"measurement": "EC50", "setting": "[1]", "result": 0.08, "unit": "nM"}, {"measurement": "inhibition at 10 µM", "setting": "[2]", "result": 99.1, "unit": "%"}, {"measurement": "IC50", "setting": "[3]", "result": 0.69, "unit": "nM"}, {"measurement": "Ki", "setting": "[3]", "result": 0.16, "unit": "nM"}, {"measurement": "CLhep predicted", "setting": "in vitro [4]", "result": 26.8, "unit": "mL/min/kg"}, {"measurement": "CLhep predicted", "setting": "in vitro [5]", "result": 11.7, "unit": "mL/min/kg"}, {"measurement": "In vitro Hepatocyte Clearance, Human % hep Blood flow", "setting": "[6]", "result": 50, "unit": "%"}]}, {"compound": "COCCOCCOCCO[C@H]1CCN(C[C@H](c2ccccc2)N(C)C(=O)Cc2ccc(Cl)c(Cl)c2)C1.Cl", "note": "[compound 4, 2-(3,4-Dichlorophenyl)-N-{(1S)-2-[(3S)-3-(2-(2-(2-methoxyethoxy)ethoxy]ethoxy)pyrrolidin-1-yl)-1-phenylethyl}-N-methylacetamide]", "values": [{"measurement": "In vitro Hepatocyte Clearance, Rat % hep Blood flow", "result": 82, "unit": "%"}, {"measurement": "EC50", "setting": "[1]", "result": 0.42, "unit": "nM"}, {"measurement": "IC50", "setting": "[2]", "result": 20400, "unit": "nM"}, {"measurement": "inhibition at 10 µM", "setting": "[2]", "result": 82, "unit": "%"}, {"measurement": "IC50", "setting": "[3]", "result": 8.9, "unit": "nM"}, {"measurement": "Ki", "setting": "[3]", "result": 2.1, "unit": "nM"}, {"measurement": "CLhep predicted", "setting": "in vitro [4]", "result": 49, "unit": "mL/min/kg"}, {"measurement": "CLhep predicted", "setting": "in vitro [5]", "result": 19.4, "unit": "mL/min/kg"}, {"measurement": "In vitro Hepatocyte Clearance, Human % hep Blood flow", "setting": "[6]", "result": 84, "unit": "%"}]}]}
